Assay results published in patent publication US12076307B2, “Compositions for prevention or treatment of acute radiation syndrome and other radiation exposure” (priority 2017, dated 2024).
Values joined by “and” are separate entries in the source; they are usually repeats but may differ in a detail not shown here. Equal entries are not always repeated.

Key:
[1] = tested on: RIPK1/3-MLKL-mediated necroptosis pathway; experiment: Necroptosis signaling and DAMP release in HaCaT cells treated with CM or rhHMGB1; type: cell-based, human
Description: An additional experiment was tested for assessing whether EC-18 treatment leads to early termination of the RIPK1/3-MLKL-mediated downstream necroptosis pathway. This was performed by using DAMP-containing conditioned media (CM) harvested from HaCaT cells, irradiated for 48 hrs, and analyzed after 2 or 72 hrs of EC-18 treatment. […] To further confirm that DAMPs in CM contribute to the activation of a necroptosis signaling pathway in a paracrine manner, recombinant human HMGB1 (rhHMGB1) was treated directly to the normal HaCaT cells. The rhHMGB1 elevated the phosphorylation of RIPK1/3 and MLKL after 2 hrs and subsequently released HMGB1 and HSP90 (FIGS. 35C-35D). To evaluate whether EC-18 mitigates the activation of RIPK1/3 and MLKL, 10 or 100 μg/mL of EC-18 was treated before the addition of CM or rhHMGB1. As a result, EC-18 lowered the phosphorylation of RIPK/3 and MLKL in both CM- and rhHMGB1-treated cells after 2 hrs. Release of HMGB1 and Hsp90 was also subsided by EC-18 after 72 hrs of post addition of CM or rhHMGB1 to the cells (FIGS. 35A-35D). TLR4-induced necroptosis signaling pathway caused by DAMP release produces cytokines, such as CXCL8, a chemotactic cytokine for neutrophils. As CXCL8 increases upon tissue damage, it was measured in cells treated with CM or rhHMGB1 as a measure of inflammation. […]

Balb/c mice, 6.11 Gy TBI = experiment: Dosing schedule optimization (delayed treatment) in LD70/30 model; type: in vivo, mouse
Description: EC-18 was administered daily in-life with its optimal dosage (250 mg/kg) at 0, 1, 2, and 3 days after irradiation on Day 0. To examine the durable efficacy of EC-18, the survival was examined 15 days after the in-life phase without the daily treatment of EC-18.
EC-18 was administered daily in-life with its optimal dosage (250 mg/kg) at 0, 1, 2, and 3 days after irradiation on Day 0. The survival rate of the γ-radiation only group was 35%. The percentages of survival of the irradiated mice with EC-18+0d, +1d, +2d, and +3d were 80, 70, 55, and 80%, respectively (FIG. 72).

[2] = tested on: Pseudomonas aeruginosa K (PAK); experiment: Co-culture of bone marrow-derived monocytes with PAK, CFU; type: cell-based; details: 100 μg/mL 1 hr; PAK MOI 50
Description: Structural-Activity Relationship Work of EC-18 To assess the optimal structure of EC-18, structural-activity relationship work was examined. A total of five structural analogs of EC-18 were selected by changing one fatty acid chain structure (red boxes in FIG. 43) and evaluated in bone marrow-derived monocytes co-cultured with Pseudomonas aeruginosa K (PAK). All analogs along with EC-18 were inoculated with PAK at the multiplicity of infection (MOI) of 50 for 30 mins and then, treated for 1 hr at the dosage of 100 μg/mL.
As a measure of […], the colony-forming units (CFUs) from each group were examined.

[3] = Plasma concentrations of EC-18 in non-irradiated and irradiated mice; type: in vivo; details: male, Balb/c, mouse, po
Description: A day after 6.11 Gy gamma-radiation, both irradiated and non-irradiated male Balb/c mice (n=5) were orally administered daily with 50, 100, 250 or 500 mg/kg of EC-18 up to 14 days and analyzed for PK parameters on days 7 and 14 post-radiation (Table 21).

CYP2C19 = CYP2C19 (Homo sapiens, UniProt P33261); experiment: CYP enzyme inhibition in human liver microsomes, CYP2C19
Excerpt: CYP1A2, CYP2C9, CYP2C19, CYP2D6, and CYP3A4 are the CYP subfamily, which plays a critical role in the metabolism of most drugs.

[4] = 6.11 Gy, 250 mg/kg daily starting +0 d
[5] = 6.11 Gy, 250 mg/kg daily starting +1 d
[6] = 6.11 Gy, 250 mg/kg daily starting +2 d
[7] = 6.11 Gy, 250 mg/kg daily starting +3 d
[8] = 6.11 Gy, 250 mg/kg daily starting +3 d, 250 mg/kg
[9] = 50 mg/kg, day 7, 50 mg/kg oral daily, Irradiated 6.11 Gy
[10] = 50 mg/kg, day 7, 50 mg/kg oral daily, Non-irradiated
[11] = 50 mg/kg, day 14, 50 mg/kg oral daily, Irradiated 6.11 Gy
[12] = 50 mg/kg, day 14, 50 mg/kg oral daily, Non-irradiated
[13] = 100 mg/kg, day 7, 100 mg/kg oral daily, Irradiated 6.11 Gy
[14] = 100 mg/kg, day 7, 100 mg/kg oral daily, Non-irradiated
[15] = 100 mg/kg, day 14, 100 mg/kg oral daily, Irradiated 6.11 Gy
[16] = 100 mg/kg, day 14, 100 mg/kg oral daily, Non-irradiated
[17] = 250 mg/kg, day 7, 250 mg/kg oral daily, Irradiated 6.11 Gy
[18] = 250 mg/kg, day 7, 250 mg/kg oral daily, Non-irradiated
[19] = 250 mg/kg, day 14, 250 mg/kg oral daily, Irradiated 6.11 Gy
[20] = 250 mg/kg, day 14, 250 mg/kg oral daily, Non-irradiated
[21] = 500 mg/kg, day 7, 500 mg/kg oral daily, Irradiated 6.11 Gy
[22] = 500 mg/kg, day 7, 500 mg/kg oral daily, Non-irradiated
[23] = 500 mg/kg, day 14, 500 mg/kg oral daily, Irradiated 6.11 Gy
[24] = 500 mg/kg, day 14, 500 mg/kg oral daily, Non-irradiated

Sequence of CYP2C19 (P33261 whole entry): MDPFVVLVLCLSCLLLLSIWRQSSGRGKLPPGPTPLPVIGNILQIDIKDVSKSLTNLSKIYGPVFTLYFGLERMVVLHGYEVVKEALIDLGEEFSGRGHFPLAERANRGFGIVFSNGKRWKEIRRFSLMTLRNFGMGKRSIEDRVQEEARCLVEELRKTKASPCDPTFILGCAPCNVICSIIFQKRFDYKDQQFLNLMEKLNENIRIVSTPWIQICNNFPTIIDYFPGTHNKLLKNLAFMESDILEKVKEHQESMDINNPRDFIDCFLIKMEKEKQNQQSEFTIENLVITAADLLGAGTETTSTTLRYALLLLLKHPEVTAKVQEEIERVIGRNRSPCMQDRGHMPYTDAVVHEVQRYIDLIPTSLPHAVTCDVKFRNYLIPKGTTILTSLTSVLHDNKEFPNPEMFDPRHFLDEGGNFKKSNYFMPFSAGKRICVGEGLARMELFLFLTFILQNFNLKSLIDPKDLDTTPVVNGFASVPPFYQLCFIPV

CCCCC/C=C\C/C=C\CCCCCCCC(=O)OC(COC(C)=O)COC(=O)CCCCCCCCCCCCCCC (centres unmarked) [EC-18, 1-palmitoyl-2-linoleoyl-3-acetylglycerol]
phosphorylation of RIPK1/3 and MLKL ([1]; 10 or 100 μg/mL before CM or rhHMGB1, after 2 hrs): lowered
release of HMGB1 and Hsp90 ([1]; 10 or 100 μg/mL, 72 hrs after CM or rhHMGB1): subsided
survival vs negative control (Balb/c mice, 6.11 Gy TBI; 250 mg/kg, even up to 3-day-delayed treatment regimen): significantly improved
weight loss induced by irradiation (Balb/c mice, 6.11 Gy TBI; 6.11 Gy, 250 mg/kg): effectively prevented and rapidly recovered weight loss
No. of mice that survived/total (Balb/c mice, 6.11 Gy TBI; [4]): 16/20
Survival (Balb/c mice, 6.11 Gy TBI; [4]): 80%
Survival time of decedents, Median (Balb/c mice, 6.11 Gy TBI; [4]): 24.5 days
Survival time of decedents, Mean ± SEM (Balb/c mice, 6.11 Gy TBI; 6.11 Gy, 250 mg/kg daily starting +0 d, 250 mg/kg): 25.0 days and 25.0 ± 1.1 days
No. of mice that survived/total (Balb/c mice, 6.11 Gy TBI; [5]): 14/20
Survival (Balb/c mice, 6.11 Gy TBI; [5]): 70%
Survival time of decedents, Median (Balb/c mice, 6.11 Gy TBI; [5]): 23.5 days
Survival time of decedents, Mean ± SEM (Balb/c mice, 6.11 Gy TBI; 6.11 Gy, 250 mg/kg daily starting +1 d, 250 mg/kg): 23.7 days and 23.7 ± 1.4 days
No. of mice that survived/total (Balb/c mice, 6.11 Gy TBI; [6]): 11/20
Survival (Balb/c mice, 6.11 Gy TBI; [6]): 55%
Survival time of decedents, Median (Balb/c mice, 6.11 Gy TBI; [6]): 18.0 days
Survival time of decedents, Mean ± SEM (Balb/c mice, 6.11 Gy TBI; 6.11 Gy, 250 mg/kg daily starting +2 d, 250 mg/kg): 18.1 days and 18.1 ± 0.8 days
No. of mice that survived/total (Balb/c mice, 6.11 Gy TBI; [7]): 11/20
Survival time of decedents, Median (Balb/c mice, 6.11 Gy TBI; [7]): 23.0 days
Survival (Balb/c mice, 6.11 Gy TBI; [8]): 80% and 55%
Survival time of decedents, Mean ± SEM (Balb/c mice, 6.11 Gy TBI; [8]): 22.3 days and 22.3 ± 1.6 days
durable efficacy after withdrawal of EC-18 (Balb/c mice, 6.11 Gy TBI; 15 days after the in-life phase without daily treatment): extended the survival of animals for an extra 15 days
colony-forming units (CFUs) vs other analogs or control groups [2]: significantly higher
AUC(0-t) [3, 9]: 39.5 ± 14.8 ng·h/mL
Cmax [3, 9]: 7.8 ± 3.4 ng/mL
Tmax [3, 9]: 0.4 ± 0.3 h
AUC(0-t) [3, 10]: 21.6 ± 11.7 ng·h/mL
Cmax [3, 10]: 2.7 ± 1.4 ng/mL
Tmax [3, 10]: 2.8 ± 2.4 h
AUC(0-t) [3, 11]: 8.6 ± 3.7 ng·h/mL
Cmax [3, 11]: 1.9 ± 0.6 ng/mL
Tmax [3, 11]: 3.1 ± 4.5 h
AUC(0-t) [3, 12]: 38.5 ± 10.3 ng·h/mL
Cmax [3, 12]: 4.1 ± 1.4 ng/mL
Tmax [3, 12]: 7.8 ± 8.4 h
AUC(0-t) [3, 13]: 41.3 ± 12.1 ng·h/mL
Cmax [3, 13]: 9.8 ± 2.9 ng/mL
Tmax [3, 13]: 0.7 ± 0.2 h
AUC(0-t) [3, 14]: 25.3 ± 7.1 ng·h/mL
Cmax [3, 14]: 9.7 ± 4.7 ng/mL
Tmax [3, 14]: 5.2 ± 8.6 h
AUC(0-t) [3, 15]: 80.8 ± 124 ng·h/mL
Cmax [3, 15]: 17.2 ± 23.3 ng/mL
Tmax [3, 15]: 1.8 ± 2.1 h
AUC(0-t) [3, 16]: 51.3 ± 22.6 ng·h/mL
Cmax [3, 16]: 12.8 ± 9.9 ng/mL
Tmax [3, 16]: 7.6 ± 8.5 h
AUC(0-t) [3, 17]: 73.9 ± 27.1 ng·h/mL
Cmax [3, 17]: 31.4 ± 14.9 ng/mL
Tmax [3, 17]: 0.6 ± 0.2 h
AUC(0-t) [3, 18]: 40.7 ± 23.4 ng·h/mL
Cmax [3, 18]: 16.4 ± 11.2 ng/mL
Tmax [3, 18]: 0.6 ± 0.2 h
AUC(0-t) [3, 19]: 16.2 ± 7.8 ng·h/mL
Cmax [3, 19]: 17.9 ± 17.5 ng/mL
Tmax [3, 19]: 0.6 ± 0.2 h
AUC(0-t) [3, 20]: 76.6 ± 9.8 ng·h/mL
Cmax [3, 20]: 19.4 ± 12.3 ng/mL
Tmax [3, 20]: 2.8 ± 4.2 h
AUC(0-t) [3, 21]: 123 ± 17.8 ng·h/mL
Cmax [3, 21]: 60.7 ± 14.6 ng/mL
Tmax [3, 21]: 0.7 ± 0.2 h
AUC(0-t) [3, 22]: 57.1 ± 39.7 ng·h/mL
Cmax [3, 22]: 14.2 ± 3 ng/mL
Tmax [3, 22]: 5.2 ± 8.6 h
AUC(0-t) [3, 23]: 67.3 ± 34.1 ng·h/mL
Cmax [3, 23]: 61 ± 42.1 ng/mL
Tmax [3, 23]: 0.6 ± 0.2 h
AUC(0-t) [3, 24]: 75.9 ± 16 ng·h/mL
Cmax [3, 24]: 32.1 ± 8 ng/mL
Tmax [3, 24]: 0.5 h
IC50 (CYP2C19): 83.6 µM
